Assay results as given in patent publication US20040072746A1, “Inhibitors of monocarboxylate transport” (priority 2001, published 2004).

Key:
[1] = tested on: Jurkat T-cell membranes; assay type: binding, human
Experimental: Cells were harvested by centrifugation at 1500 g for 10 minutes. The cell pellets were washed twice with phosphate buffered saline (PBS) and centrifuged as above. The final cell pellet was resuspended in lysis buffer (50 mM HEPES (pH 7.8), 50 mM KCl, 10% glycerol, 0.1 mM EDTA, 1 mM DTT) and lysed by nitrogen cavitation. Unlysed cells and nuclei were removed by centrifugation at 1500 g for 10 minutes. The supernatant was then centrifuged at 100,000 g for 30 minutes at 4° C., and the pellet resuspended and homogenised in assay buffer (50 mM HEPES (pH 7.5), 1 mM EDTA, 150 mM NaCl). Aliquots of membrane preparation were stored at −80° C. until use.
Frozen Jurkat cell membranes were thawed on ice and then homogenised. Wheatgerm agglutinin-linked Scintillation Proximity Assay beads (Amersham) were rehydrated in assay buffer to a concentration of 100 mg/ml. 2 ml of Jurkat membranes were added per 0.5 ml (50 mg) of SPA beads and incubated overnight with constant agitation to allow the beads to coat with Jurkat membranes. […] 10 μl of test compound and 10 μl of radioligand were incubated with 180 μl of SPA beads and membranes (0.04 mg beads). […] The plates were incubated for 3 hours at room temperature before quantitation of radioactivity proximal to the SPA beads by scintillation counting.

[2] = target: T1, MCT1 (Homo sapiens, UniProt P53985, D490E); experiment: MCT filter binding assay, yeast membranes, radioligand specific binding; design: made in house; host or cells: Saccharomyces cerevisiae BY4742 (jen1 deletion), membrane preparation; plasmid pACES14-hMCT1; conditions: ~2.5 nM radioligand
T1 sequence (P53985 1-500 D490E): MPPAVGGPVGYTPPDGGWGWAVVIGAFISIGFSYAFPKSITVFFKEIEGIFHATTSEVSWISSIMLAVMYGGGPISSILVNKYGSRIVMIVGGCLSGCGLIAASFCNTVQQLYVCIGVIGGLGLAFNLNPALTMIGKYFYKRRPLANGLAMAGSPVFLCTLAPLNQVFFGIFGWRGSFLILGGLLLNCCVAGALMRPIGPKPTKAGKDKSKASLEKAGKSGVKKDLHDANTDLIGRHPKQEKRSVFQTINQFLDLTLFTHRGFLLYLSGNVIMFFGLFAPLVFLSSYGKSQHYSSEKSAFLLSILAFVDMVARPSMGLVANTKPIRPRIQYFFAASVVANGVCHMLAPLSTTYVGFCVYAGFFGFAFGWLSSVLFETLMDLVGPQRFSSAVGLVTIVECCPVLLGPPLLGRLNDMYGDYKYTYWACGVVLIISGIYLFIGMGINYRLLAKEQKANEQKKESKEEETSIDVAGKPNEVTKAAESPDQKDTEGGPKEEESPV
Experimental: (§1) For yeast cells transformed with expression plasmids containing the human MCT 1-4 ORFs the ability of membrane preparations to bind radioligand was determined using a single ligand concentration/multi protein concentration binding assay. This generated an estimate of the amount of active binding protein present in each membrane preparation. The ligand concentration used will give an estimate of Bmax that is approximately 90% of the true value. 10 μl of ligand A, B or C that had been diluted 50 fold with assay buffer (50 mM HEPES, 0.1 mM EDTA, 0.15 M NaCl, pH 7.5, 0.5% BSA) was dispensed into wells of a polypropylene microtitre plate. This gives a final radiolabelled ligand concentration of ˜2.5 nM. […] The membranes were diluted to give a known amount/180 μl assay buffer. This is typically in the […] range. For the membranes with high binding site number a more dilute membrane preparation should be added. 180 μl of each membrane solution was then added to each well and incubated at 2 hours at room temperature with shaking. The membranes were harvested onto GF-B filter plates and washed with assay buffer without BSA, dried, scintillant added and counts detected using the relevant program for each ligand on a Packard Top Count plate reader.

[3] = target: T2, human MCT3 (Homo sapiens, UniProt O95907); experiment: as above; conditions: ~2.5 nM radioligand
T2 construct: the full length open reading frame of human MCT3 was subcloned into the S. cerevisiae expression plasmid pACES14; made in house; host or cells: Saccharomyces cerevisiae BY4742 (jen1 deletion), membrane preparation; plasmid pACES14-hMCT3
T2 sequence (O95907 1-504): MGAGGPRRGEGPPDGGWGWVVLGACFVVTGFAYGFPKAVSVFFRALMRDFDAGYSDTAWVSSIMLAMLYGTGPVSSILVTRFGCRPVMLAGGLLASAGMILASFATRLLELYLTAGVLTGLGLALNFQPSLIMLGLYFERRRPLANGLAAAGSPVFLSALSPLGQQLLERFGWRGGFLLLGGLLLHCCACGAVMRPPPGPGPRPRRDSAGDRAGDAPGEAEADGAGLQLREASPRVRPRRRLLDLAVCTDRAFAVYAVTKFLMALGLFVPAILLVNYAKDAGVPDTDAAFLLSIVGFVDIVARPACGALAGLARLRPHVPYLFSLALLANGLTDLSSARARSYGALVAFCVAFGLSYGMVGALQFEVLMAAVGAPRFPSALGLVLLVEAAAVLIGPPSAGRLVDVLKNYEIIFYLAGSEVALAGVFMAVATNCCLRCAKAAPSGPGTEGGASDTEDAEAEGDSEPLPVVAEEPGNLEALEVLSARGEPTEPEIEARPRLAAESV
Experimental: as §1

[4] = MCT filter binding assay, yeast membranes transformed with vector only; conditions: ~2.5 nM radioligand
Experimental: as §1

CC(C)Cc1nn(C)c(=O)c2c(SCCCO)n(Cc3ccccc3[125I])cc12 [Ligand A, 2,6-Dihydro-7-[(3-hydroxypropyl)thio]-6-[(2-[^125I]iodophenyl)methyl]-2-methyl-4-(2-methylpropyl)-1H-pyrrolo[3,4-d]pyridazin-1-one]
125I-ligand A binding (cpm), Specific binding (Total - Non-specific) [1]: 1991 cpm | 125I-ligand A binding (cpm), Total binding ([1]; approximately 0.1 nM radioligand, vehicle alone): 2490 ± 32 cpm | 125I-ligand A binding (cpm), Non-specific binding ([1]; in the presence of 1 μM Ligand 1): 499 ± 20 cpm | Specific binding (cpm) Average ([2]; MCT1 (2 ug)): 88841 cpm | Specific binding (cpm) Average ([2]; MCT1 (20 ug)): 177453 cpm | Specific binding (cpm) Average ([3]; MCT3 (2 ug)): 0 cpm | Specific binding (cpm) Average ([3]; MCT3 (20 ug)): 0 cpm | Specific binding (cpm) Average ([4]; vector (2 ug)): 1735 cpm | Specific binding (cpm) Average ([4]; vector (20 ug)): 0 cpm
